Key:
HDAC9 = target: T1, HDAC9 (Homo sapiens, UniProt Q9UKV0); assay: HDAC inhibition assay (Caliper EZ reader, FAM-labeled peptide substrate); format: biochemical; details: recombinant human HDAC, 60 min at room temperature, 2 μM substrate
T1 construct: purchased BPS Bioscience
Protocol: (§1) All recombinant human HDACs were purchased from BPS Bioscience. The substrates, Broad Substrate A and Broad Substrate B (see International App. No. WO 2013/067391), were synthesized in-house. All other reagents were purchased from Sigma-Aldrich. […] Reactions were terminated by the addition of 1.5 μM of the known pan-HDAC inhibitor LBH-589 (panobinostat). […] The reactions were performed in duplicate for each sample.

HDAC5 = target: T2, HDAC5 (Homo sapiens, UniProt Q9UQL6); assay: as above; format: biochemical; details: recombinant human HDAC, 60 min at room temperature, 2 μM substrate
T2 construct: purchased BPS Bioscience
T2 sequence (Q9UQL6 whole entry): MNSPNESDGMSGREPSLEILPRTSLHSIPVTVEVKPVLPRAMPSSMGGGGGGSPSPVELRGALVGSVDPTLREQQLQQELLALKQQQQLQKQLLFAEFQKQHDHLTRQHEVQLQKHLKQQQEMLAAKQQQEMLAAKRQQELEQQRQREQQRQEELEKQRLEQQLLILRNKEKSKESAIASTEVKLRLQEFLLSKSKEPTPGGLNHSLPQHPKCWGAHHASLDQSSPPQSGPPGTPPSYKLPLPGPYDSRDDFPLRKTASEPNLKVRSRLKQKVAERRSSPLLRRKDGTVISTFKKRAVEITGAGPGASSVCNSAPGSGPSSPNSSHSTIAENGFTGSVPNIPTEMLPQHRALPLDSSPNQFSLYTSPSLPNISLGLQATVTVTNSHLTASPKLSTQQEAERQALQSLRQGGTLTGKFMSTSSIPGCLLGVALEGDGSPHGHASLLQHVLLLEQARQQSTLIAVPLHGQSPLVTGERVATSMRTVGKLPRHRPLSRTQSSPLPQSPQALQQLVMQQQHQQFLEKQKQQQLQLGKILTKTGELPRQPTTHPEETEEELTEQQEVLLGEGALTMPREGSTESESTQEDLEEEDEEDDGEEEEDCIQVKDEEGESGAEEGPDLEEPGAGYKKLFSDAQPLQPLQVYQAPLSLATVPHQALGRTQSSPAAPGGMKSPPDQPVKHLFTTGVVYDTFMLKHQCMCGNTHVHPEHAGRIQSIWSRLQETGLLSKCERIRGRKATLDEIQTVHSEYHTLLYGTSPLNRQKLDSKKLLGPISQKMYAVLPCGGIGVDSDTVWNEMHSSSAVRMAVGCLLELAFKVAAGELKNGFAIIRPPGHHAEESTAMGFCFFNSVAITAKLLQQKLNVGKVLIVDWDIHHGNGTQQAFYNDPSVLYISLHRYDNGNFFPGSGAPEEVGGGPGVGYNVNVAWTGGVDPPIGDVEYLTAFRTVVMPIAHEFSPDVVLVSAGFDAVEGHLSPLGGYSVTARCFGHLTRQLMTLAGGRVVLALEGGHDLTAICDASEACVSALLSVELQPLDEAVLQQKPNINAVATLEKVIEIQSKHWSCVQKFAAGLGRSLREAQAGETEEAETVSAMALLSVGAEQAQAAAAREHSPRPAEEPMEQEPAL
Protocol: as §1

HDAC7 = target: T3, HDAC7 (Homo sapiens, UniProt Q8WUI4); assay: as above; format: biochemical; details: recombinant human HDAC, 60 min at room temperature, 2 μM substrate
T3 construct: purchased BPS Bioscience
T3 sequence (Q8WUI4 1-952): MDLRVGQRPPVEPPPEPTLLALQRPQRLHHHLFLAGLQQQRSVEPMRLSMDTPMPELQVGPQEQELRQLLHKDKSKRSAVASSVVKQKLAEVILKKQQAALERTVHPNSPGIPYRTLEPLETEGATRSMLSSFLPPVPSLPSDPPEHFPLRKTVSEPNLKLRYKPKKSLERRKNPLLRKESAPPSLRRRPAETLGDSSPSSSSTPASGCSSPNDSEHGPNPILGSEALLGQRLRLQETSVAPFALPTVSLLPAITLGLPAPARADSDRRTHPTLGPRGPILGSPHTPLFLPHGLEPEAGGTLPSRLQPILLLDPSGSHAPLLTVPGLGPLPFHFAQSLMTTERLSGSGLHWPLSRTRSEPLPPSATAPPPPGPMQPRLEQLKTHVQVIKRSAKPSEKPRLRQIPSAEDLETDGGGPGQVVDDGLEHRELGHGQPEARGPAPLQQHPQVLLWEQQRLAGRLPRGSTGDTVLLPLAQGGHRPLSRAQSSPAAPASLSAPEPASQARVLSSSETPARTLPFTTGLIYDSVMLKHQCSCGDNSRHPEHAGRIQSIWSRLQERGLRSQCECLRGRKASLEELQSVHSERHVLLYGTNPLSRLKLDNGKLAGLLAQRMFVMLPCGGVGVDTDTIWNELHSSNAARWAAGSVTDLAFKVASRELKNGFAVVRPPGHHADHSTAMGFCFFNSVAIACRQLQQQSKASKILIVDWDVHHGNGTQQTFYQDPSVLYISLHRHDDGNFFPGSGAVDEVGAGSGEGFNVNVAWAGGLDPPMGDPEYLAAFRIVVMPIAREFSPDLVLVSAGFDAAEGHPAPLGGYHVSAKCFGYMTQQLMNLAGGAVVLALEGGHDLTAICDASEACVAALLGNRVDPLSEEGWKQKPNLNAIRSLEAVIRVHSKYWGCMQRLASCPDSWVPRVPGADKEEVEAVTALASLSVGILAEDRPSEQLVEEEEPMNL
Protocol: as §1

HDAC4 = target: T4, HDAC4 (Homo sapiens, UniProt P56524); assay: as above; format: biochemical; details: recombinant human HDAC, 60 min at room temperature, 2 μM substrate
T4 construct: purchased BPS Bioscience
T4 sequence (P56524 whole entry): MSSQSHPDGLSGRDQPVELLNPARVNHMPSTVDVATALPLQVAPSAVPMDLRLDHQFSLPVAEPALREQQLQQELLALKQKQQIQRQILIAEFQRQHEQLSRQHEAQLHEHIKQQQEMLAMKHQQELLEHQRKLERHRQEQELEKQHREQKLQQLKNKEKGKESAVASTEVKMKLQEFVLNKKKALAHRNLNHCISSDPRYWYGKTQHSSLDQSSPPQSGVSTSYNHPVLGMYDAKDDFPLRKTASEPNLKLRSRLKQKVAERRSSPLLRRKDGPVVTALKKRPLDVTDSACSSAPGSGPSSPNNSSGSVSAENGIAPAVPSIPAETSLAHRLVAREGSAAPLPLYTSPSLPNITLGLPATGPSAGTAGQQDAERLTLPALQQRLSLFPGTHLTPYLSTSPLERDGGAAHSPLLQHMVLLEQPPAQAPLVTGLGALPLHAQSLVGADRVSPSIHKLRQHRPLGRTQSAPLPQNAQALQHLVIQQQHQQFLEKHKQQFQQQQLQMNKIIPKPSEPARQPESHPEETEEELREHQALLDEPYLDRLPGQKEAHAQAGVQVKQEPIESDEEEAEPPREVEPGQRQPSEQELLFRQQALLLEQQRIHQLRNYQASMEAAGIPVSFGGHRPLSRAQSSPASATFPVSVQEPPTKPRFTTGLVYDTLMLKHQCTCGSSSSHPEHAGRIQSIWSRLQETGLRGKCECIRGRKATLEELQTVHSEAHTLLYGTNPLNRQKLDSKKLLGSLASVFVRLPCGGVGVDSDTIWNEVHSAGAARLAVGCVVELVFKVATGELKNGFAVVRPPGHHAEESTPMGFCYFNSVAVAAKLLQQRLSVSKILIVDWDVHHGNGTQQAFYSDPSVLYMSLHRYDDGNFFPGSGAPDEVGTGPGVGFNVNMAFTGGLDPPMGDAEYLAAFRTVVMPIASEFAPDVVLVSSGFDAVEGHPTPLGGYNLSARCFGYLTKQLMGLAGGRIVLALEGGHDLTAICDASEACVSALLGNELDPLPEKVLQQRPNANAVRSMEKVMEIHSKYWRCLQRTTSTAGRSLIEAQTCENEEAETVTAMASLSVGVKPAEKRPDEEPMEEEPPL
Protocol: as §1

HDAC1 = target: T5, HDAC1 (Homo sapiens, UniProt Q13547); assay: as above; format: biochemical; details: recombinant human HDAC, 60 min at room temperature, 2 μM substrate
T5 construct: purchased BPS Bioscience
T5 sequence (Q13547 whole entry): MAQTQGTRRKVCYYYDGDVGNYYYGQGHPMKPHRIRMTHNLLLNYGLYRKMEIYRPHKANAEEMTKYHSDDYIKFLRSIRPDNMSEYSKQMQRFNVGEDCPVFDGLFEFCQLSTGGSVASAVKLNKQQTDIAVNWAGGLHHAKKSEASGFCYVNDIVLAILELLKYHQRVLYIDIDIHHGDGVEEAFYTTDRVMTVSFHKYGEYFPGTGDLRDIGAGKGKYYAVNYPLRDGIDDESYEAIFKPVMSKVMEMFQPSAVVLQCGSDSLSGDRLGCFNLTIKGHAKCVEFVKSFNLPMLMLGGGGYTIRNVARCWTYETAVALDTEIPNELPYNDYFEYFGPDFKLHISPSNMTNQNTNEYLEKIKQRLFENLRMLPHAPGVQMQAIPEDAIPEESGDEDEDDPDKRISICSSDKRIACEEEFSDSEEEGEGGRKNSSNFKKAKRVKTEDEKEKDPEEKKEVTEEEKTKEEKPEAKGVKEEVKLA
Protocol: as §1

HDAC6 = target: T6, HDAC6 (Homo sapiens, UniProt Q9UBN7); assay: as above; format: biochemical; details: recombinant human HDAC, 60 min at room temperature, 2 μM substrate
T6 construct: purchased BPS Bioscience
T6 sequence (Q9UBN7 1-1215): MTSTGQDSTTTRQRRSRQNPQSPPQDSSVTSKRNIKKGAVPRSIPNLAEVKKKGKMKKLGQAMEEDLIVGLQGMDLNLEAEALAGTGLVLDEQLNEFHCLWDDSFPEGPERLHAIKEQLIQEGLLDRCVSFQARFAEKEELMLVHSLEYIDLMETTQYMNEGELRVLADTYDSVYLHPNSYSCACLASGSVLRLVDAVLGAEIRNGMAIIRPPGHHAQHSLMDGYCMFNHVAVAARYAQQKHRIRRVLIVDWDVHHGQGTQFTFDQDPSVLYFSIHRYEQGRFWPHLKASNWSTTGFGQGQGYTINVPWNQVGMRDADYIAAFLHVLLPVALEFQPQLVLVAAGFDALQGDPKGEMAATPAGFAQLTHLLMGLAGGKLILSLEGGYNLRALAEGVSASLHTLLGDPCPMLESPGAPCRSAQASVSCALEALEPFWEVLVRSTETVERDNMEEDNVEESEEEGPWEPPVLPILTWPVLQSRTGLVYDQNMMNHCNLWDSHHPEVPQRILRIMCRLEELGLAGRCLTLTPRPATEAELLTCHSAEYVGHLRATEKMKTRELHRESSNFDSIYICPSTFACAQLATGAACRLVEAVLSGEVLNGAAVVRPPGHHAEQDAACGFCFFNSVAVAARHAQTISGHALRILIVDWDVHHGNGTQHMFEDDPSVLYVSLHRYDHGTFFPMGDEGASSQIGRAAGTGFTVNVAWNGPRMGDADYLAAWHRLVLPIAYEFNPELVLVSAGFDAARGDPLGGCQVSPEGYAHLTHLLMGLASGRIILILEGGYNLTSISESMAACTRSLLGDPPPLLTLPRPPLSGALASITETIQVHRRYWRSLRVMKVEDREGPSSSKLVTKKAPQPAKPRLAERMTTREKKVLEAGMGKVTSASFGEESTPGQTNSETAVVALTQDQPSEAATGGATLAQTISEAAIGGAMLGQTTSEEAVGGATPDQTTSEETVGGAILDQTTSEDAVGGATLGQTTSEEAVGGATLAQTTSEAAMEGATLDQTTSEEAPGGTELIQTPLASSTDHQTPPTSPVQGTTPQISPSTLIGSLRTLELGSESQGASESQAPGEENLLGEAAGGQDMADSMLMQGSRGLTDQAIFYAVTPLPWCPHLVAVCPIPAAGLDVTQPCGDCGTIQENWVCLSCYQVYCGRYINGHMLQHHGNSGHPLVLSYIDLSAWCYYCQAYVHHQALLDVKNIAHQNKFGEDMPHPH
Protocol: as §1

HDAC2 = target: T7, HDAC2 (Homo sapiens, UniProt Q92769); assay: as above; format: biochemical; details: recombinant human HDAC, 60 min at room temperature, 2 μM substrate
T7 construct: purchased BPS Bioscience
T7 sequence (Q92769 whole entry): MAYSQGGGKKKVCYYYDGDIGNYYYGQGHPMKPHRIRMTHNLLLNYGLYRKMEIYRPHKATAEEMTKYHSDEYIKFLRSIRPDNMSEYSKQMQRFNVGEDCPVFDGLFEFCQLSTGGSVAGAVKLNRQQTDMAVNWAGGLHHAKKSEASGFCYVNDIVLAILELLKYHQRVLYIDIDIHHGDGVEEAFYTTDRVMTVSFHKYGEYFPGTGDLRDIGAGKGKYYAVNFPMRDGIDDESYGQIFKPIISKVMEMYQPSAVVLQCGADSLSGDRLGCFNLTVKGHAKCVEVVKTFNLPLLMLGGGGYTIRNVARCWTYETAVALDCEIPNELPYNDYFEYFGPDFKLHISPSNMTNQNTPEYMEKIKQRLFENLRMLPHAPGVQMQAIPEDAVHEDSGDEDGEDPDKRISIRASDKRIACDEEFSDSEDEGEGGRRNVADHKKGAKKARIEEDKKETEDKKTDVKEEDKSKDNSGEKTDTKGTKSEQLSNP
Protocol: as §1

HDAC8 = target: T8, HDAC8 (Homo sapiens, UniProt Q9BY41); assay: as above; format: biochemical; details: recombinant human HDAC, 60 min at room temperature, 2 μM substrate
T8 construct: purchased BPS Bioscience
T8 sequence (Q9BY41 1-377): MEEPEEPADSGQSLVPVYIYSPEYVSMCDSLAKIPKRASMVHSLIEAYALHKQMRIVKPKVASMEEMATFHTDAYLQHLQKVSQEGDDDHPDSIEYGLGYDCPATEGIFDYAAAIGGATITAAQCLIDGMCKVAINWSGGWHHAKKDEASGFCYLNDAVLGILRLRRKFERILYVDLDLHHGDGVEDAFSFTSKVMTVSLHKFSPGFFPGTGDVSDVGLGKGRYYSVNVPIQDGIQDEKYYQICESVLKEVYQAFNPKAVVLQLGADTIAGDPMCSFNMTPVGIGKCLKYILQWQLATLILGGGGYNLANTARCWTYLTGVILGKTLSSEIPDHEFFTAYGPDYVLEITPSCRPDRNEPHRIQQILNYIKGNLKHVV
Protocol: as §1

HDAC3 = target: T9, HDAC3 (Homo sapiens, UniProt O15379); assay: as above; format: biochemical; details: recombinant human HDAC, 60 min at room temperature, 2 μM substrate
T9 construct: purchased BPS Bioscience
T9 sequence (O15379 whole entry): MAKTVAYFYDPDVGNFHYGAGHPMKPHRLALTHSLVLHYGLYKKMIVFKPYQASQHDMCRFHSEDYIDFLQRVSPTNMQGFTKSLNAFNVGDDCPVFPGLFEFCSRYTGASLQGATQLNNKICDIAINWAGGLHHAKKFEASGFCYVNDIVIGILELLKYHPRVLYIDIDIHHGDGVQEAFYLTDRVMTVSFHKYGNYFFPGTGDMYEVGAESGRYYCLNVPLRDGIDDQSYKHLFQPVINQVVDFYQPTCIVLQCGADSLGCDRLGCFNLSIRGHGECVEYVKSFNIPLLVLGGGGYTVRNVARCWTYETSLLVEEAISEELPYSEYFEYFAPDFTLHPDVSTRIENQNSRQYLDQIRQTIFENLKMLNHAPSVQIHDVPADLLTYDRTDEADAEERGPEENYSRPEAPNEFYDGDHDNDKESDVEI
T9 sequence (Q9Y618 395-489 partner limits assumed): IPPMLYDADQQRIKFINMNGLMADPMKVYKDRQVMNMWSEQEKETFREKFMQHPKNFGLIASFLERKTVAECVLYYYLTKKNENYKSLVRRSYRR
Protocol: as §1

HDAC = assay: In vivo PET imaging: blocking of whole brain uptake of the radiolabeled compound of Example 3; set-up: species or system rat; details: self-blocking, 5 min pretreatment with 1.0 μg-2.0 mg/kg unlabeled compound; radiotracer of Example 3
Protocol: Male Sprague-Dawley rats were utilized in pairs, anesthetized with inhalational isoflurane (Forane) at 3% in a carrier of 1.5-2 L/min medical oxygen and maintained at 2% isoflurane for the duration of the scan. The rats were arranged head-to-head in a Triumph Trimodality PET/CT/SPECT scanner (Gamma Medica, Northridge, Calif.). Rats were injected standard references or vehicle via a lateral tail vein catheterization at the start of Positron Emission Tomography (PET) acquisition. Dynamic PET acquisition lasted for 60 min and was followed by computed tomography (CT) for anatomic co-registration. PET data were reconstructed using a 3D-MLEM method resulting in a full width at half-maximum resolution of 1 mm. Reconstructed images were exported from the scanner in DICOM format along with an anatomic CT for rodent studies. These files were imported to PMOD (PMOD Technologies, Ltd.) and manually coregistered using six degrees of freedom.
Volumes of interest (VOIs) were drawn manually as spheres in brain regions guided by high resolution CT structural images and summed PET data, with a radius no less than 1 mm to minimize partial volume effects. Time-activity curves (TACs) were exported in terms of decay corrected activity per unit volume at specified time points with gradually increasing intervals. The TACs were expressed as percent injected dose per unit volume for analysis.
Summed PET images following injection with the ^11C radiolabeled (E)-3-(4-((((1r,3R,5S)-adamantan-1-ylmethyl)(methyl)amino)methyl)phenyl)-N-hydroxyacrylamide (Example 3) at baseline or after 5 minutes pretreatment with 0.5 or 2.0 mg/kg unlabeled (E)-3-(4-((((1 r,3R,5 S)-adamantan-1-ylmethyl) (methyl)amino)methyl)phenyl)-N-hydroxyacrylamide illustrate brain uptake and self-blocking, as shown in FIG. 1A. Whole-brain tracer uptake levels, normalized to uptake at 10 min, were altered by 10-40% in self-blocking experiments with 5 min pretreatment with 1.0 μg-2.0 mg/kg unlabeled (E)-3-(4-((((1r,3R,5S)-adamantan-1-ylmethyl) (methyl)amino)methyl)phenyl)-N-hydroxyacrylamide, as shown in FIGS. 1B and 1C. This quantification provides a means to measure occupancy of HDAC targets on the basis of blocked binding of the radiolabeled compound of Example 3.
Whole brain uptake of the radiotracer of Example 3 was measured 4 h after acute systemic treatment.

T1 sequence (Q9UKV0 whole entry): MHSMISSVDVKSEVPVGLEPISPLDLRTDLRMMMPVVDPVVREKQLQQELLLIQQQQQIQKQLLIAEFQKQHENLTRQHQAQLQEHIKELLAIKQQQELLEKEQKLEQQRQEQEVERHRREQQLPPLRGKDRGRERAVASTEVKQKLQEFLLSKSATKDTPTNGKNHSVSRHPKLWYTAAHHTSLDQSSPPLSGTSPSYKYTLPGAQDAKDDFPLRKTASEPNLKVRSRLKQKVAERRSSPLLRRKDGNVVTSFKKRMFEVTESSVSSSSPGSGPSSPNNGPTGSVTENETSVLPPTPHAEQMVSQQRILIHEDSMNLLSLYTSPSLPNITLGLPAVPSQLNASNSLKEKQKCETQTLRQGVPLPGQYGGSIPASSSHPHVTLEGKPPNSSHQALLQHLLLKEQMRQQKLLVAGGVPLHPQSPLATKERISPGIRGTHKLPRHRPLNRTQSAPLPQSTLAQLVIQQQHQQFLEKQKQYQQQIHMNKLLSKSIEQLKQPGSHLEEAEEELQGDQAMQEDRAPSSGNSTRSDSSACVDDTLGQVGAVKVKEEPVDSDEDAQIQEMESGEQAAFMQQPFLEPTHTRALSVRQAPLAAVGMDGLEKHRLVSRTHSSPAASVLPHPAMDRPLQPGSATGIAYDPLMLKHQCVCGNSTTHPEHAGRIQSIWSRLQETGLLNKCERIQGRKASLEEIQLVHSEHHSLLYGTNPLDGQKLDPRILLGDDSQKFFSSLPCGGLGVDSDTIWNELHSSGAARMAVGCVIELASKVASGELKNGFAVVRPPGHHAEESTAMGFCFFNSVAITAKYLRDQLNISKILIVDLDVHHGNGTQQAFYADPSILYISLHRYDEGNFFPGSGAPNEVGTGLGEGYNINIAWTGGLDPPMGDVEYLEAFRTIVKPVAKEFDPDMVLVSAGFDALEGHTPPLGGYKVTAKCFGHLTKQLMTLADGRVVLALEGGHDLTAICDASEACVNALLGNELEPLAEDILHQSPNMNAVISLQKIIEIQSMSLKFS

IC50 (HDAC9) [nM]	IC50 (HDAC5) [nM]	IC50 (HDAC7) [nM]	IC50 (HDAC4) [nM]	IC50 (HDAC1) [nM]	IC50 (HDAC6) [nM]	IC50 (HDAC2) [nM]	IC50 (HDAC8) [nM]	IC50 (HDAC3) [nM]	Compound	Whole-brain tracer uptake levels, normalized to uptake at 10 min, altered by (HDAC)
> 30000	> 5000	> 30000	> 12000	222	308	651	> 30000	470	O=C(/C=C/c1ccc(CN(CCF)CC23CC4CC(CC(C4)C2)C3)cc1)NO	
> 50000	4310	> 70000	> 70000	0.8	> 40000	6.4	> 5000	0.5	O=C(/C=C/c1ccc(CNCC23CC4CC(CC(C4)C2)C3)c(F)c1)NO	
									CN(Cc1ccc(/C=C/C(=O)NO)cc1)CC12CC3CC(CC(C3)C1)C2 [Example 1, (E)-3-(4-((((1r,3R,5S)-adamantan-1-ylmethyl)(methyl)amino)methyl)phenyl)-N-hydroxyacrylamide]	10-40%
	> 40000	> 40000		149	> 10000	602	> 40000	216	CN(Cc1ccc(/C=C/C(=O)Nc2ccccc2N)cc1)CC12CC3CC(CC(C3)C1)C2 [drawing 61]	
